Experimental data as given in PMC10214512 (2023).

What was measured:
[1] = test system: Cy5 NRAS 5'UTR G4 (RNA, G4) UGUGGGAGGGGCGGGUCUGGGUGC; experiment: fluorescence quenching (Cy5); conditions: 100 mM KCl, 10 mM MgCl2
[2] = test system: Cy5 NRAS 5'UTR G4 (RNA, G4) UGUGGGAGGGGCGGGUCUGGGUGC; experiment: MST thermophoresis; conditions: 100 mM KCl, 10 mM MgCl2; binding only at millimolar concentrations, KD not established; label of G4 construct not stated for this assay
[3] = 20 mM HEPES pH 7.4, 25 °C, group value close to 200 nM

| Compound | KD [1, 3] [nM] | also measured |
| --- | --- | --- |
| NCCOc1cc(NC(=O)c2cc(OCc3cn(CCC(=O)O)nn3)cc(C(=O)Nc3cc(OCCN)c4ccccc4n3)n2)nc2ccccc12 | 191 |  |
| NCCOc1cc(C(=O)Nc2cc(OCCN)c3ccccc3n2)nc(C(=O)Nc2cc(OCCN)c3ccccc3n2)c1 |  | KD ([1]; 20 mM HEPES pH 7.4, 25 °C read after 30 min at 4 °C, 50 nM RNA): 26 nM |
| [N-]=[N+]=NCCOCCOCCOCCOCCOCCn1ccnc1 |  | binding [2]: weak |

Now from value to molecule, other results behind:

| KD [1, 3] [nM] | Compound | also measured |
| --- | --- | --- |
| 137 | NCCOc1cc(NC(=O)c2cc(OCc3cn(CCOCCOCCOCCOCCOCCn4ccnc4)nn3)cc(C(=O)Nc3cc(OCCN)c4ccccc4n3)n2)nc2ccccc12 |  |
| 211 | NCCOc1cc(NC(=O)c2cc(OCc3cn(CCOCCOCCOCCn4ccnc4)nn3)cc(C(=O)Nc3cc(OCCN)c4ccccc4n3)n2)nc2ccccc12 |  |
